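The concentration for 50% growth inhibition is given as GI50. TGI is the concentration that stops growth completely.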
Tests used:
Assay in all cases: growth of human tumour cells (NCI), 384-well format
NCI-H322M lung = system: NCI-H322M lung
NCI-H460 NSCLC = system: NCI-H460 NSCLC
NCI-H522 lung = system: NCI-H522 lung
NCI/ADR-RES ovarian = system: NCI/ADR-RES ovarian
OVCAR-3 ovarian = system: OVCAR-3 ovarian
OVCAR-4 ovarian = system: OVCAR-4 ovarian
OVCAR-5 ovarian = system: OVCAR-5 ovarian
OVCAR-8 ovarian = system: OVCAR-8 ovarian
PC-3 prostate = system: PC-3 prostate
RPMI-8226 leukemia = system: RPMI-8226 leukemia
RXF 393 renal = system: RXF 393 renal
SF-268 CNS = system: SF-268 CNS
SF-295 CNS = system: SF-295 CNS
SF-539 CNS = system: SF-539 CNS
SK-MEL-2 melanoma = system: SK-MEL-2 melanoma
SK-MEL-28 melanoma = system: SK-MEL-28 melanoma
SK-MEL-5 melanoma = system: SK-MEL-5 melanoma
SK-OV-3 ovarian = system: SK-OV-3 ovarian
SN12C renal = system: SN12C renal
SNB-19 CNS = system: SNB-19 CNS
SR leukemia = system: SR leukemia
SW-620 colon = system: SW-620 colon
T-47D breast = system: T-47D breast
TK-10 renal = system: TK-10 renal
U251 glioblastoma = system: U251 glioblastoma
UACC-257 melanoma = system: UACC-257 melanoma
UACC-62 melanoma = system: UACC-62 melanoma
UO-31 renal = system: UO-31 renal

Cc1ncc(NC(=O)c2ccc(CN3CCN(C)CC3)c(C(F)(F)F)c2)cc1Nc1nccc(-c2cccnc2)n1
GI50 (NCI-H322M lung): 10.9 µM
TGI (NCI-H322M lung): 22.9 µM
GI50 (NCI-H460 NSCLC): 1.65 µM
TGI (NCI-H460 NSCLC): 3.26 µM
GI50 (NCI-H522 lung): 3.05 µM
TGI (NCI-H522 lung): 17.8 µM
GI50 (NCI/ADR-RES ovarian): 10.6 µM
TGI (NCI/ADR-RES ovarian): 22.4 µM
GI50 (OVCAR-3 ovarian): 1.74 µM
TGI (OVCAR-3 ovarian): 3.31 µM
GI50 (OVCAR-4 ovarian): 2.63 µM
TGI (OVCAR-4 ovarian): 14.1 µM
GI50 (OVCAR-5 ovarian): 14.4 µM
TGI (OVCAR-5 ovarian): 27.6 µM
GI50 (OVCAR-8 ovarian): 11.3 µM
TGI (OVCAR-8 ovarian): 23.5 µM
GI50 (PC-3 prostate): 13.6 µM
TGI (PC-3 prostate): 26.6 µM
GI50 (RPMI-8226 leukemia): 0.745 µM
TGI (RPMI-8226 leukemia): 2 µM
GI50 (RXF 393 renal): 1.66 µM
TGI (RXF 393 renal): 3.59 µM
GI50 (SF-268 CNS): 10.4 µM
TGI (SF-268 CNS): 22.2 µM
GI50 (SF-295 CNS): 19.5 µM
TGI (SF-295 CNS): 33.7 µM
GI50 (SF-539 CNS): 1.32 µM
TGI (SF-539 CNS): 2.6 µM
GI50 (SK-MEL-2 melanoma): 2.46 µM
TGI (SK-MEL-2 melanoma): 8.05 µM
GI50 (SK-MEL-28 melanoma): 1.78 µM
TGI (SK-MEL-28 melanoma): 14.9 µM
GI50 (SK-MEL-5 melanoma): 1.44 µM
TGI (SK-MEL-5 melanoma): 16.4 µM
GI50 (SK-OV-3 ovarian): 1.94 µM
TGI (SK-OV-3 ovarian): 3.89 µM
GI50 (SN12C renal): 17.4 µM
TGI (SN12C renal): 31.2 µM
GI50 (SNB-19 CNS): 15.7 µM
TGI (SNB-19 CNS): 29.2 µM
GI50 (SR leukemia): 1.66 µM
TGI (SR leukemia): 3.02 µM
GI50 (SW-620 colon): 1.84 µM
TGI (SW-620 colon): 3.29 µM
GI50 (T-47D breast): 12.1 µM
TGI (T-47D breast): 24.6 µM
GI50 (TK-10 renal): 12.9 µM
TGI (TK-10 renal): 25.5 µM
GI50 (U251 glioblastoma): 1.82 µM
TGI (U251 glioblastoma): 3.31 µM
GI50 (UACC-257 melanoma): 1.06 µM
TGI (UACC-257 melanoma): 2.24 µM
GI50 (UACC-62 melanoma): 1.35 µM
TGI (UACC-62 melanoma): 13.8 µM
GI50 (UO-31 renal): 11.4 µM
TGI (UO-31 renal): 23.5 µM

From PubChem BioAssay (NCI)
